This note sets out measurements from patent US4659804A, “(Bis-1,7-S-acetamidomethyl-L-cysteine)salmon calcitonin” (Armour Pharmaceutical Company, priority 1984, dated 1987).

The test system of this test is serum calcium concentration. The test is described as follows: Biological assay of calcitonin analogs in vivo: reduction of serum calcium concentration, 2×2 parallel line assay. Further details: species or system Rats. The following applies: standard salmon calcitonin used in the assay. As for the experimental part: The biological potency of [1,7-Di-Cys(Acm)]salmon calcitonin was determined by comparing the reduction of serum calcium concentration which followed administration by graded doses of [1,7-Di-Cys(Acm)]SCT and synthetic salmon calcitonin standard. Rats were divided into four groups of seven animals, and each group was assigned at random to a dose of standard or test solution. Low and high doses were chosen from the linear portion of the dose-response curve. For the salmon calcitonin standard, the values were 0.7 and 2.1 mcg. peptide/100 g. body weight (BW). This dose approximates 3 and 9 MU/100 g. BW. Peptides were given by subcutaneous injection (0.2 ml/100 g. BW) and blood was withdrawn 1 hour later for serum calcium determination. Sera are processed and analyzed within two hours of collection. […]. Results were analyzed by a 2×2 parallel line assay [Gaddum, J. H., J. Pharm. Pharmacol., 6, 345 (1953)]. The standard salmon calcitonin used was independently determined to contain greater than 4,000 IU/mg. [1,7-Di-Cys(Acm)]SCT assayed at 4250 IU/mg.

Molecules are shown by their SMILES.

In the case of `CC(C)C[C@H](NC(=O)[C@H](CCCCN)NC(=O)CNC(=O)[C@H](CC(C)C)NC(=O)[C@@H](NC(=O)[C@@H]1CSSC[C@H](N)C(=O)N[C@@H](CO)C(=O)N[C@@H](CC(N)=O)C(=O)N[C@@H](CC(C)C)C(=O)N[C@@H](CO)C(=O)N[C@@H]([C@@H](C)O)C(=O)N1)C(C)C)C(=O)N[C@@H](CO)C(=O)N[C@@H](CCC(N)=O)C(=O)N[C@@H](CCC(=O)O)C(=O)N[C@@H](CC(C)C)C(=O)N[C@@H](Cc1c[nH]cn1)C(=O)N[C@@H](CCCCN)C(=O)N[C@@H](CC(C)C)C(=O)N[C@@H](CCC(N)=O)C(=O)N[C@H](C(=O)N[C@@H](Cc1ccc(O)cc1)C(=O)N1CCC[C@H]1C(=O)N[C@@H](CCCNC(=N)N)C(=O)N[C@H](C(=O)N[C@@H](CC(N)=O)C(=O)N[C@H](C(=O)NCC(=O)N[C@@H](CO)C(=O)NCC(=O)N[C@H](C(=O)N1CCC[C@H]1C(N)=O)[C@@H](C)O)[C@@H](C)O)[C@@H](C)O)[C@@H](C)O` [standard salmon calcitonin, Salmon calcitonin], the “biological potency of the standard, independently determined” value is on record as “greater than 4,000 IU/mg”.
